What was measured:
[1] = test system: cortex culture containing neurons and glia; assay: Brain cell protection in apoptosis induced by oxygen-glucose deprivation (OGD)/reoxygenation, LDH release; assay type: cell-based, rat; conditions: for protective effect on brain cells (apoptosis, % LDH release): OGD then 24 hours normoxic, 6 concentrations, FIG. 1
Procedure: A […] cortex culture medium containing neurons and glia was obtained from fetal rats during the gestation period of 17 to 18 days. That is, an embryonic tissue was extracted from a pregnant Sprague-Dawley and transferred to a Hanks Balanced Salt solution (Gibco) cooled with ice. The cortical brain tissue was sterile and thinly dissected and stored in cold HBSS before digestion with 0.0125% trypsin. The isolated cells were placed in a 96 well plate coated with poly-L-lysine (1 mg/ml, Sigma-Aldrich) in a Dulbecco's modified eagle medium (Gibco) containing 10% iron-supplemented fetal calf serum (Hyclone) and 1% antibiotic/antimycotic (Gibco) at 37° C. at a seeding density of 50,000 cells/well. Then, after attaching the culture medium overnight in a 37° C. incubator containing 5% CO2 and atmospheric oxygen, at the next day, the medium was replaced with a warm Neurobasal A medium (Gibco) containing 0.5 mmol/L of L-glutamine (Gibco) and supplemented with 1% B27, N2 and antibiotics/antimycotic (Gibco). In the culture for 14 to 16 days, half of the medium was changed every 4 days. After 14 days of cell culture, the culture medium was replaced with a vehicle (0.1% DMSO or EtOH) or an oxygen-free-glucose Neurobasal A containing an experimental substance (RA1, naringenin or lipoic acid) at 6 concentrations. After oxygen-glucose deprivation (OGD), the same volume of Neurobasal A with the same novel substance concentration was added and transferred to a normoxic condition (5% CO2 and atmospheric oxygen) state for 24 hours. Cellular activity was evaluated by measuring LDH release of damaged cells. The effects of lipoic acid, naringenin, and the novel substance RA1 on apoptosis (% LDH release) following ischemia/reoxygenation-reperfusion (I/R) were performed in the in vitro cell culture.

[2] = test system: cerebral infarction site; assay: Transient middle cerebral artery occlusion (t-MCAO), administration immediately before artery occlusion; assay type: in vivo, Sprague-Dawley rats; conditions: for size of the cerebral infarction site compared to the vehicle: 30 min occlusion, 5 h 30 min reperfusion, FIG. 3(A); for size of the cerebral infarction site, dependence on concentration: FIG. 3(B) and (C)
Procedure: As a research model for cerebral infarction, transient middle cerebral artery occlusion (t-MCAO) in animals (rats) was used to examine the infarct size of the cerebral infarction site and the degree of its protective action. First, in an animal model in which the middle cerebral artery of Sprague-Dawley rats (300 to 350 g; Charles River, Montreal, PQ, CAN) was closed for 30 minutes to create a cerebral infarction and then reperfused for 5 hours and 30 minutes (t-MCAO), naringenin and RA1 (VANL-100) were administered immediately before artery occlusion and compared with a case of administration of a vehicle.

[3] = Antioxidant capacity, radical scavenging ability by DPPH (Blois method); conditions: absorbance at 517 nm
Procedure: The antioxidant capacity of the novel compounds was measured by using a Blois method of measuring radical scavenging ability by DPPH which was widely known. A solution of DPPH by concentration was prepared in ethanol, and the initial absorbance was measured at 517 nm, and the absorbance over time was measured by adding a solution of the novel compound and the DPPH solution. The antioxidant capacity was expressed in % and an IC50 value was obtained using a calculation program.

[4] = molecular target: mushroom tyrosinase; assay: Inhibitory effect on tyrosinase; assay type: biochemical; conditions: L-tyrosine substrate, pH 6.5, 37° C., 30 minutes; read-out: Inhibition of tyrosinase
Procedure: The inhibitory effect on tyrosinase related to skin whitening and melanin formation was measured using the following experimental method. 10 μL of each sample solution at a different concentration and 20 μL of mushroom tyrosinase in a phosphate buffer (pH 6.5) were added to a 96-well microplate and added with 170 μL of a mixed solution in which a 1 mM L-tyrosine solution, a 50 mM potassium phosphate buffer (pH 6.5) and distilled water were contained in a ratio of 10:10:9. Samples dissolved in DMSO were diluted 30 times with distilled water and used. After incubation at 37° C. for 30 minutes, the absorbance of the reaction solution was measured at 490 nm using a GENios microplate reader (Tecan Austria GmbH, Austria). The inhibition degree of tyrosinase by the addition of the sample was expressed as a 50% inhibition rate (IC50).

[5] = test system: cortex culture containing neurons and glia; assay: Total antioxidant capacity assay after OGD and I/R (Antioxidant Assay Kit); assay type: cell-based, rat; conditions: FIG. 2
Procedure: Several groups of plates were subjected to the OGD (oxygen-glucose deprivation) and I/R (ischemia-reperfusion), and the total antioxidant capacity was measured using a general commercial instrument (Antioxidant Assay Kit, Sigma-Aldrich). The average value of the three experiments was obtained and the antioxidant capacity was expressed in […].

Row | SMILES | IC50 [4] | Antioxidant capacity (%) [3] | also measured
1 | O=C1C[C@@H](c2ccc(O)cc2)Oc2cc(O)cc(O)c21 [Naringenin] | 82 µM | 58.5% | protective effect on brain cells (apoptosis, % LDH release) [1]: slight effect at one concentration; size of the cerebral infarction site compared to the vehicle [2]: significantly reduced; size of the cerebral infarction site, dependence on concentration [2]: reduced the size of the cerebral infarction site depending on a concentration
2 | O=C(O)CCCC[C@@H]1CCSS1 (racemic) [Lipoic acid] | 44 µM | 66.8% | protective effect on brain cells (apoptosis, % LDH release) [1]: hardly showed a protective effect; total antioxidant capacity ([5]; 0.25 and 25 ummol/L): no antioxidant effect; total antioxidant capacity ([5]; high concentrations of 125 and 1250 ummol/L): great antioxidant capacity
3 | O=c1cc(CO)occ1O [Kojic acid, reference compound] | – | 28% | –
4 | OC[C@H]1O[C@@H](Oc2ccc(O)cc2)[C@H](O)[C@@H](O)[C@@H]1O [Arbutin, reference compound] | 266 µM | 36% | –
5 | O=C(CCCCC1CCSS1)OCCOc1cc(O)c2c(c1)OC(c1ccc(O)cc1)CC2=O (stereo not shown) [RA4, 2-((5-hydroxy-2-(4-hydroxyphenyl)-4-oxochroman-7-yl)oxy)ethyl 5-(1,2-dithiolan-3-yl)pentanoate] | 260 µM | 22% | –

The next lines start with results.

Row | IC50 [4] | SMILES | Antioxidant capacity (%) [3] | also measured
6 | 32 µM | O=C(CCCCC1CCSS1)Oc1cc(O)c2c(c1)OC(c1ccc(O)cc1)CC2=O (stereo not shown) [RA1, 5-hydroxy-2-(4-hydroxyphenyl)-4-oxochroman-7-yl 5-(1,2-dithiolan-3-yl)pentanoate] | – | strength of protective effect on brain cells at a very low concentration ([1]; FIG. 1D, comparison with lipoic acid and naringenin): about 100 times; protective effect on brain cells (apoptosis, % LDH release) [1]: very strong protective effect; total antioxidant capacity ([5]; 2.5 to 1250 ummol/L): strong protective effect; size of the cerebral infarction site compared to the vehicle [2]: significantly reduced; size of the cerebral infarction site, dependence on concentration [2]: reduced the size of the cerebral infarction site depending on a concentration; effective concentration, times lower than naringenin (10 mg/kg) ([2]; RA1 1×10^−3 mg/kg against naringenin 10 mg/kg): 10,000 times; size of the cerebral infarction site ([2]; RA1 at 1×10^−3 mg/kg): strongly reduced; protective effect on brain cells, times stronger than naringenin or lipoic acid ([2]; animal brain infarction model, very low concentration): ~10,000 times
7 | > 350 µM | O=C(CCCCC1CCSS1)OCCOCCOCCOCCOCCOCCOc1cc(O)c2c(c1)OC(c1ccc(O)cc1)CC2=O (stereo not shown) [RA9, 17-((5-hydroxy-2-(4-hydroxyphenyl)-4-oxochroman-7-yl)oxy)-3,6,9,12,15-pentaoxaheptadecyl 5-(1,2-dithiolan-3-yl)pentanoate] | 24% | –
8 | 58 µM | O=C(CCCCC1CCSS1)Oc1ccc(C2CC(=O)c3c(O)cc(O)cc3O2)cc1 (stereo not shown) [RA2, 4-(5,7-dihydroxy-4-oxochroman-2-yl)phenyl 5-(1,2-dithiolan-3-yl)pentanoate] | 77% | –
9 | > 350 µM | O=C(CCCCC1CCSS1)OCCOCCOCCOCCOCCOc1cc(O)c2c(c1)OC(c1ccc(O)cc1)CC2=O (stereo not shown) [RA8, 14-((5-hydroxy-2-(4-hydroxyphenyl)-4-oxochroman-7-yl)oxy)-3,6,9,12-tetraoxatetradecyl 5-(1,2-dithiolan-3-yl)pentanoate] | 11.5% | –
10 | > 350 µM | O=C(CCCCC1CCSS1)OCCOCCOCCOCCOc1cc(O)c2c(c1)OC(c1ccc(O)cc1)CC2=O (stereo not shown) [RA7, 2-(2-(2-(2-((5-hydroxy-2-(4-hydroxyphenyl)-4-oxochroman-7-yl)oxy)ethoxy)ethoxy)ethoxy)ethyl 5-(1,2-dithiolan-3-yl)pentanoate] | – | –
11 | 133 µM | O=C(CCCCC1CCSS1)Oc1ccc(C2CC(=O)c3c(O)cc(OC(=O)CCCCC4CCSS4)cc3O2)cc1 (stereo not shown) [RA3, 4-(7-((5-(1,2-dithiolan-3-yl)pentanoyl)oxy)-5-hydroxy-4-oxochroman-2-yl)phenyl 5-(1,2-dithiolan-3-yl)pentanoate] | 12.4% | –
12 | 350 µM | O=C(CCCCC1CCSS1)OCCOCCOCCOc1cc(O)c2c(c1)OC(c1ccc(O)cc1)CC2=O (stereo not shown) [RA6, 2-(2-(2-((5-hydroxy-2-(4-hydroxyphenyl)-4-oxochroman-7-yl)oxy)ethoxy)ethoxy)ethyl 5-(1,2-dithiolan-3-yl)pentanoate] | 14.6% | –
13 | 225 µM | O=C(CCCCC1CCSS1)OCCOCCOc1cc(O)c2c(c1)OC(c1ccc(O)cc1)CC2=O (stereo not shown) [RA5, 2-(2-((5-hydroxy-2-(4-hydroxyphenyl)-4-oxochroman-7-yl)oxy)ethoxy) ethyl 5-(1,2-dithiolan-3-yl)pentanoate] | 28.5% | –

From patent US20210260199A1, “NOVEL NARINGENIN/LIPOIC ACID CONJUGATE COMPOUND AND USE THEREOF” (priority 2018, published 2021)
